Assays:
[1] = system: Reniform Nematode (Rotylenchulus reniformis); test: Reniform Nematode efficacy on soybean, soil nematode count compared to check; type: in vivo
[2] = system: Soybean Cyst Nematode (Heterodera glycines) eggs; test: Evaluation of Soybean Cyst Nematode egg hatch; type: cell-based
[3] = system: Root Knot Nematode (Meloidogyne incognita) eggs; test: Evaluation of Root Knot Nematode egg hatch; type: cell-based
[4] = system: Lesion Nematode (Pratylenchus Spp.); test: Lesion Nematode control in corn, stained root tissue; type: in vivo; details: 0.25 mg ai/seed
Excerpt: Corn root tissue was stained using acid fuchsin/methyl blue to assess for endoparasitic, endo/ectoparasitic, and semi endoparasitic nematodes that have entered the root system, using standard methodology. The effect of pydiflumetofen was compared to fluopyram.

[5] = system: Soybean Cyst Nematode (Heterodera glycines) on Soybean; test: Soybean yield data, seed treatment (trials 4-6); type: in vivo; details: 0.15 mg ai/seed
[6] = system: Soybean Cyst Nematode (Heterodera glycines); test: Control of Heterodera glycines on soybean in a greenhouse, seed treatment; type: in vivo
Excerpt: Methodology for evaluating control of Heterodera glycines at all life stages on soybean in a greenhouse.
Five thousand Heterodera glycine eggs where placed in a 1 inch hole in the center of 3.5 inch×8 inch deep plastic pots. The seeds were inoculated first when applying the active compound as a seed treatment. The treated seed was placed in the center hole and covered up with sterilized top soil. Each pot was watered by hand, with approximately 50 mls of water applied to each pot once per day. 35 day after planting, the soil was gently rinsed from the roots of the emerged plants and place in a 20 mesh over a 60-mesh sieve. The root system was blasted with water to remove mature females. The 20-mesh sieve removed. The females were washed to the bottom of the 60-mesh sieve and rinsed into a tube for counting under a stereoscope. For root penetration experiments, the roots of the plants were removed from the pots at 7-14 days after planting, rinsed clean of soil, and stained with acid fuchsin stain. Stained nematodes in the roots were counted using an electronic stereoscope.
The action of pydiflumetofen against soybean syst nematode (SCN; Heterodera glycines) and its effect on soybean plants was assessed out as described previously, and compared to that of fluopyram. The number of SCN per stained root was counted, and the mean root weight per plant calculated, thus enabling the number of SCN per gram of root to be calculated.

[7] = Series 2 Trial 1, 0.075 mg ai/seed
[8] = Series 2 Trial 1, 0.15 mg ai/seed
[9] = Series 2 Trial 1, 0.30 mg ai/seed

Compound	Nematode Reduction Compared to Check (mean difference in soil nematode count) ([1]; in-furrow (5.6 Kg/Ha))	Percent Egg Hatch Reduction ([2]; 1 ppm) [%]	Percent Egg Hatch Reduction ([2]; 10 ppm) [%]	Percent Egg Hatch Reduction ([2]; 100 ppm) [%]	Percent Egg Hatch Reduction ([3]; 1 ppm) [%]	Percent Egg Hatch Reduction ([3]; 10 ppm) [%]	Percent Egg Hatch Reduction ([3]; 100 ppm) [%]	Nematode Reduction Compared to Check (mean difference in soil nematode count) ([1]; 0.15 mg/seed)	Lesion Nematode per gram of Root [4]	Lesion Nematodes within root system [4]	Mean Difference in Yield Compared to Checks ([5]; Trial 4) [Bu/Ac]	Mean Difference in Yield Compared to Checks ([5]; Trial 5)	Mean Difference in Yield Compared to Checks ([5]; Trial 6)	Mean SCN/root [6, 7]	No. SCN/g root tissue [6, 7]	Mean SCN/root [6, 8]	No. SCN/g root tissue [6, 8]	Mean SCN/root [6, 9]	No. SCN/g root tissue [6, 9]
CNC(=O)O/N=C/C(C)(C)SC [Aldicarb]	−1937	–	–	–	–	–	–	–	–	–	–	–	–	–	–	–	–	–	–
O=S(=O)(CCC(F)=C(F)F)c1ncc(Cl)s1 [Fluensulfone]	–	−2.1	−1.5	0.5	−3.5	−0.9	48.8	–	–	–	–	–	–	–	–	–	–	–	–
O=C(NCCc1ncc(C(F)(F)F)cc1Cl)c1ccccc1C(F)(F)F [Fluopyram, reference compound]	–	−1.3	4.5	61.9	1.1	55.9	54.7	−3146	211	108	−3.5	+5.4 Bu/Ac	+2.9 Bu/Ac	20.8	12.1	17.7	30.3	7.3	23.4

Reference: US12369583B2, “Nematicidal compositions” (SYNGENTA CROP PROTECTION AG, priority 2018, dated 2025)
